Consider 6 compounds from ChEMBL document CHEMBL4303084, “Identification of antiviral drug candidates against SARS-CoV-2 from FDA-approved drugs” (2020).

A short description of series [1]: Cell viability measured by CellTiter-Glo assay in Vero cells at MOI 0.05 after 72hr. The following applies: chlorocebus sabaeus, Vero cells. A general note: In ATP-based viability assays light output follows the ATP content of the culture.
A further series relates to SARS-CoV-2. Kind of series: microbe, parasite or virus in culture. In kind it is functional, organism-based, Chlorocebus sabaeus. To be noted: Severe acute respiratory syndrome coronavirus 2, Vero, 24 h.
The nature of series [2]: Selectivity index for antiviral vs cytotoxic activity in Vero cells (CC50/IC50). To be noted: monkey.

In general, CC50 refers to the concentration that lowers cell viability or growth by half. Lower therefore signals greater toxicity to the cells. One may read the IC50 as the point on the concentration scale where inhibition reaches its midpoint. For `CCN(CC)CCCC(C)Nc1c2ccc(Cl)cc2nc2ccc(OC)cc12` (stereo not drawn) [QUINACRINE], the CC50 at 72 h in series [1] is 14.7 µM. The same compound returned an IC50 in the series on SARS-CoV-2 of more than 50 µM. Further, the selectivity ratio in series [2] (vero) was 0.29.
In series [1], `CC[C@@H](C(=O)[C@@H](C)[C@@H](O)[C@H](C)[C@@H]1O[C@@H]([C@@H](CC)C(=O)O)CC[C@@H]1C)[C@H]1O[C@]2(C=C[C@@H](O)[C@]3(CC[C@@](C)([C@H]4CC[C@](O)(CC)[C@H](C)O4)O3)O2)[C@H](C)C[C@@H]1C` [SALINOMYCIN] registered a CC50 at 72 h of more than 50 µM. This compound registered an IC50 in the series on SARS-CoV-2 of 0.24 µM. Further, the selectivity ratio in series [2] (Vero cells) was 211.
Consider `CSc1ccc2c(c1)N(CCC1CCCCN1C)c1ccccc1S2` (stereo not drawn) [THIORIDAZINE], for which the half-maximal cytotoxic concentration (CC50) at 72 h in series [1] was 16 µM. Besides, 6.69 µM corresponded to half-maximal inhibition with SARS-CoV-2 (IC50). The selectivity ratio in series [2] (Vero cells) stood at 2.39.
In series [1], `CCN(CC)CCOc1ccc2c(c1)C(=O)c1cc(OCCN(CC)CC)ccc1-2` [TILORONE] registered a CC50 at 72 h of 19.7 µM. The same compound returned an IC50 with SARS-CoV-2 of 4.09 µM. The selectivity ratio in series [2] (Vero cells) worked out at 4.81.
The like results for `CN(C)CCOc1ccc(/C(=C(/CCCl)c2ccccc2)c2ccccc2)cc1` [TOREMIFENE] were, in that order, 10.1 µM, 3.58 µM and 2.82.
The like results for `CCN(CC)CCOc1ccc(C(O)(Cc2ccc(Cl)cc2)c2ccc(C)cc2)cc1` (stereo not drawn) [TRIPARANOL] were, in that order, 14.7 µM, 7.05 µM and 2.09.
